# Experimental data published in patent US11447495B2, “Substituted benzo[f]imidazo[1,5-a][1,4]diazepines as GABA(a) receptor modulators” (priority 2016, dated 2022).
# What was measured:
# HEK293 = test: Cytotoxicity, CellTiter-Glo cell viability assay, kidney cells; type: cell-based, human; conditions: human, HEK293 (HEK293T) human embryonic kidney cells
# Method: The cytotoxicity of compounds may be evaluated by treating HEK293 human embryonic kidney cells with increasing concentrations of compounds for 24-48 hours followed by the quantification of living cells using Cell-Titer Glo (Promega).
# Compounds with increased cytotoxicity can be identified using an in vitro cytotoxicity assay. Therefore, human embryonic kidney 293T (HEK293T) cell lines were purchased (ATCC) and cultured in 75 cm2 flasks (CellStar). Cells were grown in DMEM/High Glucose (Hyclone, #SH3024301) media to which non-essential amino acids (Hyclone, #SH30238.01), 10 mM HEPES (Hyclone, #SH302237.01), 5×106 units of penicillin and streptomycin (Hyclone, #SV30010), and 10% of heat inactivated fetal bovine serum (Gibco, #10082147) were added. Cells were harvested using 0.05% Trypsin (Hyclone, #SH3023601). The cell viability assay was evaluated using CellTiter-Glo™ Luminescent Cell Viability Assay Kit (Promega, Madison, Wis.), which contains luciferase and all its substrate except ATP. The controls for the cytotoxicity assay used were (E)-10-(bromotriphenylphosphoranyl)decyl 4-(4-(tert-butyl)phenyl)-4-oxobut-2-enoate (400 μM in DMSO, positive control) and DMSO (negative control). All luminescence readings were performed on a Tecan Infinite M1000 plate reader. Small volume transfers were performed on the Tecan Freedom EVO liquid handling system with a 100 nL pin tool transfer (V&P Scientific). Serial dilutions were done in 96-well polypropylene plates (Corning, #3365) and assays were conducted in 384-well white optical bottom plates. The assays were carried out in quadruplet in three independent runs. The data were normalized to the controls and if possible analyzed by nonlinear regression (GraphPad Prism).
# [1] = system: inflammatory cells, eosinophils, CD4+ T cells in BALF; test: Inflammatory cell numbers in BALF by flow cytometry; type: in vivo, ova s/c BALB/c mice; conditions: 100 mg/kg twice daily for 5 days
# Method: The change of the number of specific immune cells caused by compounds may be investigated in the bronchoalveolar lavage fluid (BALF) of Ova S/C mice. Therefore, a bronchoalveolar lavage may be carried out followed by the lysis of red blood cells. Incubation of cell-type specific antibodies with BALF may allow the quantification of leukocytes such as eosinophils and CD4^+ T-lymphocytes using flow cytometry.
# Determination of anti-inflammatory properties of compounds were investigated in an allergen induced mouse model of asthma. At the day of analysis, bronchoalveolar lavage (BAL) was performed with 1 mL of Ca2+ and Mg2+ free PBS. Red blood cells (RBCs) were lysed using BD red blood cell lysis buffer (BD Pharmingen, San Jose, Calif.). BALF was split into four different tubes and non-specific binding to Fc receptors was blocked for 5 minutes using 6 μg/mL of 2.4G2 mouse BD Fc Block™ (BD Pharmingen, San Jose, Calif.). BALF cells were stained for 30 minutes at 4° C. in the dark with 100 μL BSA stain buffer (BD Pharmingen, San Jose, Calif.) containing the final concentrations of the following antibodies: anti-mouse CD45 APC (1:1000, 30-F11, Affymetrix eBiosciences, San Diego, Calif.), FITC rat anti-mouse CD4 (1:500, RM4-5, BD Pharmingen, San Jose, Calif.), PE Rat Anti-Mouse Siglec F (1:500, E50-2440, BD Pharmingen, San Jose, Calif.) and mouse CCR3 PE-conjugated antibody (1:40, 83101, R&D systems Inc, Minneapolis, Minn.). Flow cytometric studies were done using the BD FACS Calibur (BD Pharmingen, San Jose, Calif.) and data analyzed subsequently using Cell Quest pro software (BD Pharmingen, San Jose, Calif.). General gating for immune cells were followed. Total inflammatory cell count was obtained by running all samples on high (60 μL/min) for 180 seconds. The gated anti-mouse CD45 positive events in the fourth channel (FL4) were used to calculate the total inflammatory cell count as cells/mL. The frequencies of CCR3+/Siglec F were used for quantification of eosinophils and CD4+ for CD4+ T cell populations in their respective gates were multiplied by the total inflammatory cell count (cells/mL) to obtain the differential cell population. Statistical analysis: Data were analyzed using GraphPad Prism 4 (GraphPad Software, San Diego, Calif.) and expressed as mean±SEM. One-way analysis of variance (ANOVA) with Dunnet post hoc test or two-way ANOVA with Bonferroni post hoc test were performed for statistical difference for multiple groups. FIGS. 7A-7C show effects of compounds on inflammatory cells. Groups of 10 ova s/c BALB/c mice were administered compounds at 100 mg/kg twice daily for 5 days. BALF was harvested from each animal and used for (A) quantification of total inflammatory cells; (B) eosinophils; (C) CD4^+ T cells. Cells were stained with mouse CD45^+ APC antibody, and samples were analyzed with BD FACS Calibur on high flow rate (60 μl/minute) for 180 seconds. The gated positive events in the fourth channel (FL4) were used to calculate the total inflammatory cell count as cells/ml. Quantification of specific leukocyte population (B) eosinophils (C) CD4^+ T cell populations were stained with specific antibodies and detected by flow cytometry. Data represent mean±SEM from 10 mice in each group. *, **, and *** indicate p<0.05, p<0.01, and p<0.001 significance, respectively, compared to vehicle treated ova s/c BALB/c mice.
# HEPG2 = test: Cytotoxicity, liver cells; type: cell-based, human; conditions: human, HepG2 liver cells
SMILES,LD50 HEK293 (Kidney) (HEK293) [µM],numbers of CD4+ T cells [1],numbers of eosinophils [1],LD50 HEPG2 (Liver) (HEPG2) [µM],numbers of inflammatory cells in BALF [1]
"C[C@H]1N=C(c2ccccc2F)c2cc(Br)ccc2-n2cnc(C(=O)O)c21 [GL-II-93, (R)-8-bromo-6-(2-fluorophenyl)-4-methyl-4H-benzo[f]imidazo[1,5-a][1,4]diazepine-3-carboxylic acid]",>400,did reduce the numbers of eosinophils and CD4^+ T cells,did reduce the numbers of eosinophils,>400,
"CCOC(=O)c1ncn2c1[C@@H]1CCCN1C(=O)c1cc(O)ccc1-2 [RJ-02-50, ethyl (S)-7-hydroxy-9-oxo-11,12,13,13a-tetrahydro-9H-benzo[e]imidazo[5,1-c]pyrrolo[1,2-a][1,4]diazepine-1-carboxylate]",>400,did reduce the numbers of eosinophils and CD4^+ T cells,did reduce the numbers of eosinophils,>400,
"O=C1c2cc(O)ccc2-n2cnc(-c3cnco3)c2[C@@H]2CCCN12 [RJ-03-30, (S)-7-hydroxy-1-(oxazol-5-yl)-11,12,13,13a-tetrahydro-9H-benzo[e]imidazo[5,1-c]pyrrolo[1,2-a][1,4]diazepin-9-one]",>400,,,>400,did not modulate the numbers of inflammatory cells
"C#Cc1ccc2c(c1)C(c1ccccc1F)=N[C@H](C)c1c(C(=O)O)ncn1-2 [SH-053-2′F-R-CH3-Acid, (R)-8-ethynyl-6-(2-fluorophenyl)-4-methyl-4H-benzo[f]imidazo[1,5-a][1,4]diazepine-3-carboxylic acid]",>400,but not CD4^+ T cells,reduced the numbers of eosinophils,>400,
